According to patent US20220401329A1, “ARTIFICIAL MELANIN NANOPARTICLES AND PRECURSOR MOLECULES AS HAIR DYES” (Northwestern University, priority 2019, published 2022):
Marks after values point to notes of the source that are not given here.

Columns and labels:
[1] = tested on: Agaricus bisporus tyrosinase (EC 1.14.18.1); experiment: Monomer consumption in tyrosinase-mediated oxidation, by RP-HPLC; format: biochemical; conditions: 84 nM tyrosinase; for monomer consumption (%) after 2 h reaction: 0.5 mg/mL monomer in water
Description: The use of chemoenzymatic oxidative polymerization to produce multifunctional hair coatings has two main advantages. First, it is performed at neutral pH, avoiding the need for basic additives such as NH4OH. Second, it allows the use of substrates other than DA, such as phenolamines and amino acids. Mushroom tyrosinase has recently been used to promote polydopamine-based film deposition^40 and nanoparticles formation^41 starting from dopamine as well as natural phenolamines. […] As previously reported,^40 a 6 h reaction time was necessary to obtain effective darkening of the reaction solutions, performed either in water or Dulbecco's phosphate-buffered saline (DPBS) buffer (FIGS. 23A and 29). Across all tested monomers (L-Tyr, TA, DA), color darkening was associated with an initial increase, then decrease in UV-Vis absorption at 310 nm and 475 nm (FIGS. 23B and 30A-30D). A decrease in these signals, deriving from quinone and cyclic amine species respectively,^40 after the 6 h reaction is indicative of successful polymerization and deposition.^40 We next performed these reactions at 35° C. and at neutral pH, optimal reaction parameters for mushroom tyrosinase.^42 This led to a faster process with solutions turning brown/black several minutes after reaction initiation (FIG. 23A). […] This was confirmed by the rapid disappearance of the peak at 310 nm and 480 nm, as monitored by UV-Vis (FIGS. 23B and 30A-30D). […] (FIGS. 23C and 31A-31B and Table 2). At five-fold higher concentration of 420 nM (50 U/mL) we observed almost complete monomer consumption (FIG. 23D). Monitoring Monomer Consumption via RP-HPLC studies. Monomer consumption after a 2 h reaction was determined by RP-HPLC. Reactions were performed either at rt or at 35° C. and using either 84 nM or […] (five fold) tyrosinase.

[2] = Solubility of monomers in water; format: physicochemical

Row | SMILES | monomer consumption (%) after 2 h reaction ([1]; 35° C.) [%] | monomer consumption (%) after 2 h reaction ([1]; rt) | solubility [2] [mM] | substrate for mushroom tyrosinase ([1]; 0.5 mg/mL, 2 hours at 35° C. (FIG. 33A))
1 | NCCc1ccc(O)c(O)c1 [DA, dopamine] | 91 | 65% | – | –
2 | N[C@@H](Cc1ccc(O)cc1)C(=O)O [L-Tyr, L-tyrosine] | 86 | 55%* | – | –
3 | COC(=O)[C@@H](N)Cc1ccc(O)cc1 [L-Tyr-OMe, L-tyrosine methyl ester] | – | – | ≥ 26 | good substrate
4 | NCCc1ccc(O)cc1 [TA, tyramine] | 86 | 76% | – | –
